Results on 31 compounds are retold here after patent US9555039B2, “Piperidine derivatives and compositions for the inhibition of nicotinamide phosphoribosyltransferase (NAMPT)” (Forma TM, LLC., priority 2011, dated 2017).

Like-named read-outs stand apart in the source and are kept apart here.

The target in experiment [1] is T1, Recombinant His-tagged NAMPT (Homo sapiens, UniProt P43490).
T1 construct: His; host or cells: E. coli
The experiment can be described thus: Biochemical inhibition assay: NAMPT enzymatic reaction, NMN quantified by mass spectrometry. The conditions noted are these: 33 nM NAMPT, 1 μM NAM, 100 μM PRPP, 30 minutes at room temperature, read-out: Biochem IC50. An outline of the steps:
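Reaction 30 min at room temperature with 1 μM NAM, 100 μM PRPP, 2.5 mM ATP (final), quenched with formic acid. NMN quantified by RapidFire electrospray MS, normalized to L-cystathionine; IC50 from percent inhibition versus DMSO.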

The subject of experiment [2] is A2780 cells. The experiment can be described thus: In-vitro cell proliferation assay (SRB, 72 hours). The class given is cell-based. Conditions: sulforhodamine B (SRB) assay. In outline:
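Viable cells measured by TCA fixation and SRB staining, absorbance 570 nm; % inhibition vs DMSO control after media-only background subtraction, interpolated between two bracketing concentrations.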
Background: In SRB staining, fixed cells bind dye roughly in proportion to their protein.

T1 sequence (P43490 whole entry): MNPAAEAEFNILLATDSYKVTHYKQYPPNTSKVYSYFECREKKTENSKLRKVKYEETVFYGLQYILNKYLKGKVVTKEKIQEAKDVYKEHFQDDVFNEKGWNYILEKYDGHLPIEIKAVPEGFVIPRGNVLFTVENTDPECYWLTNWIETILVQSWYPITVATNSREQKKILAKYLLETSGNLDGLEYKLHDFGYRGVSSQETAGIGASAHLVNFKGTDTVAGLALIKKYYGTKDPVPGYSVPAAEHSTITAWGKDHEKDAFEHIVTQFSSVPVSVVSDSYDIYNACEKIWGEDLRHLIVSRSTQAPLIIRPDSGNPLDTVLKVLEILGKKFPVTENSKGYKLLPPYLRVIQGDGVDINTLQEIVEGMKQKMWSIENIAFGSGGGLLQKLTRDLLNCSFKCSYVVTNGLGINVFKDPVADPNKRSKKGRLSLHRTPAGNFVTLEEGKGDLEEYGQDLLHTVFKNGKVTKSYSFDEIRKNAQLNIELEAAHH

Broadly, the IC50 is the concentration at which inhibition is half-maximal. For `O=C(NCCCCC1CCN(C(=O)c2cnc(C(F)(F)F)nc2)CC1)c1cc2cnccc2[nH]1` [N-[4-(1-{[2-(trifluoromethyl)pyrimidin-5-yl]carbonyl}piperidin-4-yl)butyl]-1H-pyrrolo[3,2-c]pyridine-2-carboxamide], the figures for the IC50 in experiment [1] (2.5 mM ATP) and in experiment [2] (Homo sapiens) were 242 nM and 100 to 1000 nM, respectively.

`CC(C)S(=O)(=O)N1CCC(CCCCNC(=O)c2cc3cnccc3[nH]2)CC1` [N-{4-[1-(propane-2-sulfonyl)piperidin-4-yl]butyl}-1H-pyrrolo[3,2-c]pyridine-2-carboxamide]: the IC50 is 30.6 nM in experiment [1] (2.5 mM ATP) and 23 nM in experiment [2] (Homo sapiens).

On to `O=C(NCCCCC1CCN(C(=O)c2cccc(Cl)c2Cl)CC1)c1cc2ccncc2s1` [N-(4-{1-[(2,3-dichlorophenyl)carbonyl]piperidin-4-yl}butyl)thieno[2,3-c]pyridine-2-carboxamide], for which the IC50 in experiment [1] (2.5 mM ATP) amounted to 20.1 nM; in experiment [2] (Homo sapiens) it was 6.7 nM.

Consider `COc1cc(Cl)ccc1C(=O)N1CCC(CCCCNC(=O)c2cc3cnccc3[nH]2)CC1` [N-(4-{1-[(4-chloro-2-methoxyphenyl)carbonyl]piperidin-4-yl}butyl)-1H-pyrrolo[3,2-c]pyridine-2-carboxamide], for which the IC50 in experiment [1] (2.5 mM ATP) is 62.1 nM; in experiment [2] (Homo sapiens), 6.1 nM.

Regarding `O=C(NCCCCC1CCN(C(=O)c2ccc(F)cc2)CC1)c1ccc2nccn2c1` [N-(4-{1-[(4-fluorophenyl)carbonyl]piperidin-4-yl}butyl)imidazo[1,2-a]pyridine-6-carboxamide], the results for the IC50 in experiment [1] (2.5 mM ATP) and in experiment [2] (Homo sapiens) were 12 nM and 26.2 nM, respectively.

Consider `Cc1c(F)cccc1C(=O)N1CCC(CCCCNC(=O)c2cc3ccncc3s2)CC1` [N-(4-{1-[(3-fluoro-2-methylphenyl)carbonyl]piperidin-4-yl}butyl)thieno[2,3-c]pyridine-2-carboxamide], for which the figures for the IC50 in experiment [1] (2.5 mM ATP) and in experiment [2] (Homo sapiens) were 6.8 nM and 3.2 nM, respectively.

Turning to `O=C(NCCCCC1CCN(C(=O)c2ccc(C(F)(F)F)cn2)CC1)c1cc2ccncc2s1` [N-[4-(1-{[5-(trifluoromethyl)pyridin-2-yl]carbonyl}piperidin-4-yl)butyl]thieno[2,3-c]pyridine-2-carboxamide], the IC50 in experiment [1] (2.5 mM ATP) was 91.8 nM; in experiment [2] (Homo sapiens) it was 100 to 1000 nM.

Consider `O=C(NCCCCC1CCN(S(=O)(=O)c2ccc(OC(F)(F)F)cc2)CC1)c1cc2cnccc2[nH]1` [N-[4-(1-{[4-(trifluoromethoxy)benzene]sulfonyl}piperidin-4-yl)butyl]-1H-pyrrolo[3,2-c]pyridine-2-carboxamide], for which the IC50 in experiment [1] ([…] ATP) amounted to 76 nM; in experiment [2], 27.2 nM.

For the compound `O=C(NCCCCC1CCN(S(=O)(=O)c2ccc(Cl)cc2)CC1)c1cc2cnccc2[nH]1` [N-(4-{1-[(4-chlorobenzene)sulfonyl]piperidin-4-yl}butyl)-1H-pyrrolo[3,2-c]pyridine-2-carboxamide], the values for the IC50 in experiment [1] (2.5 mM ATP) and in experiment [2] (Homo sapiens) were 49.9 nM and 27.5 nM, respectively.

For `O=C(NCCCCC1CCN(C(=O)c2ccoc2)CC1)c1cc2cnccc2[nH]1` [N-(4-{1-[(furan-3-yl)carbonyl]piperidin-4-yl}butyl)-1H-pyrrolo[3,2-c]pyridine-2-carboxamide], the results for the IC50 in experiment [1] (2.5 mM ATP) and in experiment [2] (Homo sapiens) were 9.1 nM and 10.1 nM, respectively.

In the case of `COc1ncc(Cl)cc1C(=O)N1CCC(CCCCNC(=O)c2cc3cnccc3[nH]2)CC1` [N-(4-{1-[(5-chloro-2-methoxypyridin-3-yl)carbonyl]piperidin-4-yl}butyl)-1H-pyrrolo[3,2-c]pyridine-2-carboxamide], the results for the IC50 in experiment [1] (2.5 mM ATP) and in experiment [2] (Homo sapiens) were 30.3 nM and 3.3 nM, respectively.

Regarding `O=C(NCCCCC1CCN(C(=O)c2ccc(-n3cccn3)cc2)CC1)c1cc2cnccc2[nH]1` [N-[4-(1-{[4-(1H-pyrazol-1-yl)phenyl]carbonyl}piperidin-4-yl)butyl]-1H-pyrrolo[3,2-c]pyridine-2-carboxamide], the IC50 was determined as 50.7 nM in experiment [1] (2.5 mM ATP) and 13.6 nM in experiment [2] (Homo sapiens).

Consider `O=C(NCCCCC1CCN(C(=O)c2ccc3[nH]ccc3c2)CC1)c1ccc2nccn2c1` [N-(4-{1-[(1H-indol-5-yl)carbonyl]piperidin-4-yl}butyl)imidazo[1,2-a]pyridine-6-carboxamide], for which the IC50 was determined as 19.5 nM in experiment [1] (2.5 mM ATP) and 18.5 nM in experiment [2] (Homo sapiens).

Take `COc1ccc(C(=O)N2CCC(CCCCNC(=O)c3ccc4nccn4c3)CC2)c(OC)c1` [N-(4-{1-[(2,4-dimethoxyphenyl)carbonyl]piperidin-4-yl}butyl)imidazo[1,2-a]pyridine-6-carboxamide]: the IC50 in experiment [1] (2.5 mM ATP) is 22.2 nM; in experiment [2] (Homo sapiens), 3.3 nM.

As for `O=C(NCCCCC1CCN(C(=O)c2ccc(C(F)(F)F)cn2)CC1)c1cc2cnccc2[nH]1` [N-[4-(1-{[5-(trifluoromethyl)pyridin-2-yl]carbonyl}piperidin-4-yl)butyl]-1H-pyrrolo[3,2-c]pyridine-2-carboxamide], the values for the 50% inhibitory concentration (IC50) in experiment [1] (2.5 mM ATP) and in experiment [2] (Homo sapiens) were 137 nM and 59.6 nM, respectively.

As for `Cc1nc(CC(=O)N2CCC(CCCCNC(=O)c3cc4ccncc4s3)CC2)cs1` [N-(4-{1-[2-(2-methyl-1,3-thiazol-4-yl)acetyl]piperidin-4-yl}butyl)thieno[2,3-c]pyridine-2-carboxamide], the IC50 was found to be 13.5 nM in experiment [1] (2.5 mM ATP) and 28.2 nM in experiment [2] (Homo sapiens).

`O=C(NCCCCC1CCN(C(=O)c2ccccc2F)CC1)c1cc2cnccc2[nH]1` [N-(4-{1-[(2-fluorophenyl)carbonyl]piperidin-4-yl}butyl)-1H-pyrrolo[3,2-c]pyridine-2-carboxamide]: the IC50 came to 7.5 nM in experiment [1] (2.5 mM ATP) and 0.5 nM in experiment [2] (Homo sapiens).

Take `O=C(NCCCCC1CCN(C(=O)c2cc3ccccc3s2)CC1)c1cc2ccncc2s1` [N-(4-{1-[(1-benzothiophen-2-yl)carbonyl]piperidin-4-yl}butyl)thieno[2,3-c]pyridine-2-carboxamide]: the IC50 is 17.7 nM in experiment [1] (2.5 mM ATP) and 100 to 1000 nM in experiment [2] (Homo sapiens).

In the case of `O=C(NCCCCC1CCN(S(=O)(=O)c2ccccc2)CC1)c1cc2cnccc2[nH]1` [N-{4-[1-(benzenesulfonyl)piperidin-4-yl]butyl}-1H-pyrrolo[3,2-c]pyridine-2-carboxamide], the values for the IC50 in experiment [1] (2.5 mM ATP) and in experiment [2] (Homo sapiens) were 24.9 nM and 6.7 nM, respectively.

Regarding `COc1cccc(C(=O)N2CCC(CCCCNC(=O)c3cc4cnccc4[nH]3)CC2)c1OC` [N-(4-{1-[(2,3-dimethoxyphenyl)carbonyl]piperidin-4-yl}butyl)-1H-pyrrolo[3,2-c]pyridine-2-carboxamide], the IC50 in experiment [1] (2.5 mM ATP) amounted to 20.8 nM; in experiment [2] (Homo sapiens) it was 1.9 nM.

Regarding `CCOc1ccccc1C(=O)N1CCC(CCCCNC(=O)c2ccc3nccn3c2)CC1` [N-(4-{1-[(2-ethoxyphenyl)carbonyl]piperidin-4-yl}butyl)imidazo[1,2-a]pyridine-6-carboxamide], the results for the IC50 in experiment [1] (2.5 mM ATP) and in experiment [2] (Homo sapiens) were 5.2 nM and 0.7 nM, respectively.

As to `CC(=O)N1CCC(C(=O)N2CCC(CCCCNC(=O)c3cc4cnccc4[nH]3)CC2)CC1` [N-(4-{1-[(1-acetylpiperidin-4-yl)carbonyl]piperidin-4-yl}butyl)-1H-pyrrolo[3,2-c]pyridine-2-carboxamide], the IC50 in experiment [1] (2.5 mM ATP) came to 134 nM; in experiment [2] (Homo sapiens), 23.9 nM.

Turning to `O=C(NCCCCC1CCN(S(=O)(=O)c2ccccc2OC(F)(F)F)CC1)c1cc2cnccc2[nH]1` [N-[4-(1-{[2-(trifluoromethoxy)benzene]sulfonyl}piperidin-4-yl)butyl]-1H-pyrrolo[3,2-c]pyridine-2-carboxamide], the figures for the IC50 in experiment [1] ([…] ATP) and in experiment [2] were 22.6 nM and 3.3 nM, respectively.

Consider `O=C(NCCCCC1CCN(C(=O)c2cnc(C(F)(F)F)nc2)CC1)c1cc2ccncc2s1` [N-[4-(1-{[2-(trifluoromethyl)pyrimidin-5-yl]carbonyl}piperidin-4-yl)butyl]thieno[2,3-c]pyridine-2-carboxamide], for which the results for the IC50 in experiment [1] (2.5 mM ATP) and in experiment [2] (Homo sapiens) were 158 nM and 100 to 1000 nM, respectively.

On to `COc1ccccc1C(=O)N1CCC(CCCCNC(=O)c2cc3ccncc3s2)CC1` [N-(4-{1-[(2-methoxyphenyl)carbonyl]piperidin-4-yl}butyl)thieno[2,3-c]pyridine-2-carboxamide], for which the IC50 is 7.7 nM in experiment [1] (2.5 mM ATP) and 3.3 nM in experiment [2] (Homo sapiens).

Take `CSc1ncccc1C(=O)N1CCC(CCCCNC(=O)c2ccc3nccn3c2)CC1` [N-[4-(1-{[2-(methylsulfanyl)pyridin-3-yl]carbonyl}piperidin-4-yl)butyl]imidazo[1,2-a]pyridine-6-carboxamide]: the values for the IC50 in experiment [1] (2.5 mM ATP) and in experiment [2] (Homo sapiens) were 5.5 nM and 0.7 nM, respectively.

In the case of `Cc1ccc(C(=O)N2CCC(CCCCNC(=O)c3cc4ccncc4s3)CC2)cn1` [N-(4-{1-[(6-methylpyridin-3-yl)carbonyl]piperidin-4-yl}butyl)thieno[2,3-c]pyridine-2-carboxamide], the IC50 in experiment [1] (2.5 mM ATP) was 69.7 nM; in experiment [2] (Homo sapiens), 100 to 1000 nM.

In the case of `O=C(NCCCCC1CCN(C(=O)c2cc3cnccc3[nH]2)CC1)c1cc2cnccc2[nH]1` [N-{4-[1-({1H-pyrrolo[3,2-c]pyridin-2-yl}carbonyl)piperidin-4-yl]butyl}-1H-pyrrolo[3,2-c]pyridine-2-carboxamide], the IC50 was determined as 20.9 nM in experiment [1] (2.5 mM ATP) and 11.3 nM in experiment [2] (Homo sapiens).

For the compound `O=C(NCCCCC1CCN(C(=O)c2cccnc2)CC1)c1cc2ccncc2s1` [N-(4-{1-[(pyridin-3-yl)carbonyl]piperidin-4-yl}butyl)thieno[2,3-c]pyridine-2-carboxamide], the IC50 in experiment [1] (2.5 mM ATP) came out at 11.1 nM; in experiment [2] (Homo sapiens), 27.4 nM.

For the compound `CCOc1ccccc1C(=O)N1CCC(CCCCNC(=O)c2cc3cnccc3[nH]2)CC1` [N-(4-{1-[(2-ethoxyphenyl)carbonyl]piperidin-4-yl}butyl)-1H-pyrrolo[3,2-c]pyridine-2-carboxamide], the IC50 in experiment [1] (2.5 mM ATP) came out at 30.5 nM; in experiment [2] (Homo sapiens), 0.5 nM.

For the compound `CC(C)Oc1ccc(C(=O)N2CCC(CCCCNC(=O)c3cc4cnccc4[nH]3)CC2)cc1` [N-[4-(1-{[4-(propan-2-yloxy)phenyl]carbonyl}piperidin-4-yl)butyl]-1H-pyrrolo[3,2-c]pyridine-2-carboxamide], the values for the IC50 in experiment [1] (2.5 mM ATP) and in experiment [2] (Homo sapiens) were 93.7 nM and 13.1 nM, respectively.
